IC50 data for 21 compounds are collected here from patent US12371428B2 (Exelixis, Inc., priority 2019, dated 2025).

Assay [1] concerns the target Met (phospho-Met, HGF-stimulated PC-3 prostate cancer cells) (Homo sapiens (Human), UniProt P08581). The assay is described as follows: Met autophosphorylation ELISA in PC-3 cells (Example F). The assay is classed as cell-based. Conditions: cellular activity; Met autophosphorylation ELISA in PC-3 cells; read-out: c-Met IC50. In a few lines: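 PC-3 cells, serum-starved 3 h, were treated with compounds (8-point dose curve, 0.3% DMSO final) for 1 h, then stimulated with 100 ng/mL recombinant human HGF for 10 min. Lysate phospho-Met (panTyr) was quantified by sandwich ELISA; IC50 from 4-parameter logistic fit.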
Background: An ELISA detects its analyte on a solid surface through an enzyme-linked reagent.

In assay [2] the target is Mer (phospho-Mer, MERTK-transfected 293A cells) (Homo sapiens (Human), UniProt Q12866). Kind of assay: Mer autophosphorylation ELISA in transient transfected 293A cells (Example H). The assay is classed as cell-based. To be noted: cellular activity; Mer autophosphorylation ELISA in transient transfected 293A cells. In outline:
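Human MERTK transiently transfected into 293A cells; compounds as 8-point dose curve in serum-free medium (0.3% DMSO final), 1 h. Lysates assayed by phospho-Mer sandwich ELISA against phospho-Mer standard; DMSO = 100%, reference inhibitor = 0% activity; IC50 from 4-parameter logistic fit.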

Assay [3] deals with Human KDR (residues 790-1356) (Homo sapiens (Human), UniProt P35968). The assay is described as follows: Human KDR kinase assay, HTRF KinEase (Example B-2). Type of assay: biochemical. Conditions: protocol of Example B-2 (other compounds). In a few lines: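 Human KDR residues 790-1356 (0.1 ng/well) in buffer with 5 mM MgCl2, 1 mM MnCl2, 1 mM DTT, biotinylated peptide substrate, ATP at Km (4.0 μM), 3% DMSO, 10 compound concentrations; 40 min, room temperature. EDTA stop, streptavidin-XL665/Eu-TK antibody HTRF read 665/620 nm; 4-parameter IC50.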
Human KDR (residues 790-1356), sequence (P35968 790-1356): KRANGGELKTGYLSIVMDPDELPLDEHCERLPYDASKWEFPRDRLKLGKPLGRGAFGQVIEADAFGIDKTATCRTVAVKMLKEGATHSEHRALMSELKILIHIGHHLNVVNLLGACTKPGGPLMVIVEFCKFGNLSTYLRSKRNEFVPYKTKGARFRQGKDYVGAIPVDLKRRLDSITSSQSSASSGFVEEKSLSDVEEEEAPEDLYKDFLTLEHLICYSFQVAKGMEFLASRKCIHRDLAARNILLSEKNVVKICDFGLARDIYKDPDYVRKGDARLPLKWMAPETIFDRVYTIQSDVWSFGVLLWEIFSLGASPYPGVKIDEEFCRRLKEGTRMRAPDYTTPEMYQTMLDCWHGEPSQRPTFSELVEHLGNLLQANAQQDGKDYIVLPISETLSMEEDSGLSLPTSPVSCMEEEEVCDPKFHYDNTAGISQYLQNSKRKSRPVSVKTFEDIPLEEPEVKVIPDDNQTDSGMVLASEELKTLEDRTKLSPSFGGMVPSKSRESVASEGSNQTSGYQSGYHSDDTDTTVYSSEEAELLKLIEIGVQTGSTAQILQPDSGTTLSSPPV
On the technique in general: In TR-FRET formats the signal depends on donor and acceptor labels being close together.

Assay [4] addresses Human MER (residues 528-999) (Homo sapiens (Human), UniProt Q12866). Kind of assay: Human Mer kinase assay, HTRF KinEase (Example C-2). Type of assay: biochemical. Conditions: protocol of Example C-2 (other compounds). In outline: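 HTRF KinEase TK assay with MER 528-999 (1 ng/well) in enzymatic buffer plus 5 mM MgCl2 and 1 mM DTT, biotinylated peptide substrate and ATP at Km (40 μM), 3% DMSO final, 60 min at room temperature. Stopped with EDTA detection mix (SA-XL665, TK antibody-Eu3+), read at 665/620 nm after 60 min; IC50 from 10-point 4-parameter fit, normalized to DMSO and 1 μM reference.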

Human MER (residues 528-999), sequence (Q12866 528-999): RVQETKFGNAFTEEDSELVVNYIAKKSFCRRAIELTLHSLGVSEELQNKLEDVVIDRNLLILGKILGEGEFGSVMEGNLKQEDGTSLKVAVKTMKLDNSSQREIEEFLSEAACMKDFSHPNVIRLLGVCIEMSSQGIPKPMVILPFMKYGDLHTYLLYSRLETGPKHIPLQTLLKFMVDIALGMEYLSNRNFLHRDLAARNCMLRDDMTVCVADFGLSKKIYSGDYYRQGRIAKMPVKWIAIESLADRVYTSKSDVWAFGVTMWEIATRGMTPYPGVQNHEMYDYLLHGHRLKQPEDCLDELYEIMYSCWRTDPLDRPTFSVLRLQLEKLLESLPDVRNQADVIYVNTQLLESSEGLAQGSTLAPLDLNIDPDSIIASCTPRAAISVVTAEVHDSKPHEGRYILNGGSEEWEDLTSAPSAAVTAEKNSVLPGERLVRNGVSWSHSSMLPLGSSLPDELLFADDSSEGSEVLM
Met (phospho-Met, HGF-stimulated PC-3 prostate cancer cells), sequence (P08581 25-1390): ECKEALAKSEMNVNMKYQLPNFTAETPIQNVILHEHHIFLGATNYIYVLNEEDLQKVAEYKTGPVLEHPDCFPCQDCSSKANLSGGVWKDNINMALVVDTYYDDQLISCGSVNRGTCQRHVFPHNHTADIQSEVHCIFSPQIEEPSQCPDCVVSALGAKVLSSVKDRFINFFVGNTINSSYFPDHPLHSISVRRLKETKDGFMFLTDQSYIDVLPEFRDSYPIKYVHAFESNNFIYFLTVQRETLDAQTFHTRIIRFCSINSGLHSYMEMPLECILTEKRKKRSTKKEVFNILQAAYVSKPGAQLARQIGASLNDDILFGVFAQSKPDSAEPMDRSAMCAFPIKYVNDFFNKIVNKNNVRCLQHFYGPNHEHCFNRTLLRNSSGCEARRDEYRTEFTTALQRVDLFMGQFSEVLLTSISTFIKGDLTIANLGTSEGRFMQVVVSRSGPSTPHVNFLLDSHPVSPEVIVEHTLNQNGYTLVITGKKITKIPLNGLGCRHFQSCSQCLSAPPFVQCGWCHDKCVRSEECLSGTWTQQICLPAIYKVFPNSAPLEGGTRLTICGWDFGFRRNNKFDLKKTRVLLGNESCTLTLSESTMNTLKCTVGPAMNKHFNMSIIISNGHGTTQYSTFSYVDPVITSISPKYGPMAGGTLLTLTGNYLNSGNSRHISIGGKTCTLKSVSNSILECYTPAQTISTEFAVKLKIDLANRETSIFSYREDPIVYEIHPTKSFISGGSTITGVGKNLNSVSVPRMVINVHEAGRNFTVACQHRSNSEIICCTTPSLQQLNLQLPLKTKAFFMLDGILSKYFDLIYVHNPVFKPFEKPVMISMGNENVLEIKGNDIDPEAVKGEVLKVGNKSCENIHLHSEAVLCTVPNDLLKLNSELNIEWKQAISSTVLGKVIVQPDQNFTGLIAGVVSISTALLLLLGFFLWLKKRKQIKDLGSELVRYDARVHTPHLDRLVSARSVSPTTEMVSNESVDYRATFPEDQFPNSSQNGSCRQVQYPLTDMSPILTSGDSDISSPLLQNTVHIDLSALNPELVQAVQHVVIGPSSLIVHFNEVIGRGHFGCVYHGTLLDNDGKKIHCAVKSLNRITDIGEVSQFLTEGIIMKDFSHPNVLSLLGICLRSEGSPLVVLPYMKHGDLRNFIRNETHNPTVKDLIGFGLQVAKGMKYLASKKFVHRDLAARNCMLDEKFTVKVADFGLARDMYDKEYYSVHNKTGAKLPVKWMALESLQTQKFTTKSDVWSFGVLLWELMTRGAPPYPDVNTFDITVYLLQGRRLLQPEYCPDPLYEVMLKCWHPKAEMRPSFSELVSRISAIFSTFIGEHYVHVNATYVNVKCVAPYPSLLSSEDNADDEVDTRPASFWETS
Mer (phospho-Mer, MERTK-transfected 293A cells), sequence (Q12866 21-999): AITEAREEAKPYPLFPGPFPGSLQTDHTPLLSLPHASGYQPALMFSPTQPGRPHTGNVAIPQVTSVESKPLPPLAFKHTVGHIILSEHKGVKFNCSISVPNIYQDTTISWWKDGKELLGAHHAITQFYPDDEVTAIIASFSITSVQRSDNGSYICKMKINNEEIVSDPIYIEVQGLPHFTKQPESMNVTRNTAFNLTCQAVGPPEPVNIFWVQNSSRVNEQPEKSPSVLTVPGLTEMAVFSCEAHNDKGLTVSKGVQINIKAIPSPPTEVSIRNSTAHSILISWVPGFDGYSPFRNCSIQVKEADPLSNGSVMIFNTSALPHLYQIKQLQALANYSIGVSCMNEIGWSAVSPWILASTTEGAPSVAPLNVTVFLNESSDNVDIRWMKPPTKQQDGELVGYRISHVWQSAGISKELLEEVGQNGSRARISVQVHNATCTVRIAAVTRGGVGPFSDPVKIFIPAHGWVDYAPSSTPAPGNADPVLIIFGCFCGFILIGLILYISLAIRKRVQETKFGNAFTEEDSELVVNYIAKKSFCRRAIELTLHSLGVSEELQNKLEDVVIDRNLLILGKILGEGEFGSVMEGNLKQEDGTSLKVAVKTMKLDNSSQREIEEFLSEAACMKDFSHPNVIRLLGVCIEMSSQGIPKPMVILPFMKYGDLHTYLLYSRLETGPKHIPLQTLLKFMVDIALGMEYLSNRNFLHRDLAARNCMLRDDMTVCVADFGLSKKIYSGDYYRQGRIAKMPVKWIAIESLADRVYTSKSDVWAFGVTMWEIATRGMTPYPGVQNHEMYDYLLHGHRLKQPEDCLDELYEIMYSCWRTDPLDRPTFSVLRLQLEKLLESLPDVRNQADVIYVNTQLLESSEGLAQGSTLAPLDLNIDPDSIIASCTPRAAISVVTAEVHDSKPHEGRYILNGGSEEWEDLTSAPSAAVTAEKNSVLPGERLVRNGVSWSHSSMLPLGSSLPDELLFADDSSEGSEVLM

The term IC50 denotes the concentration that gives 50% inhibition. On to `COc1cc2nccc(Oc3ccc(NC(=O)c4cn(C(C)C)c(C)c(-c5ccc(F)cc5)c4=O)cc3F)c2nc1OC` [Compound 21, N-[4-[(6,7-Dimethoxy-1,5-naphthyridin-4-yl)oxy]-3-fluorophenyl]-5-(4-fluorophenyl)-6-methyl-4-oxo-1-propan-2-ylpyridine-3-carboxamide], for which the concentration for half-maximal inhibition (IC50) in assay [1] and in assay [2] was below 100 nM in each case.

With `COc1cc2nccc(Oc3ccc(NC(=O)c4cn(C(C)C)c(C)c(-c5ccc(F)cc5)c4=O)cc3F)c2cc1OC` [Compound 22, N-[4-(6,7-Dimethoxyquinolin-4-yl)oxy-3-fluorophenyl]-5-(4-fluorophenyl)-6-methyl-4-oxo-1-propan-2-ylpyridine-3-carboxamide], the half-maximal inhibitory concentration (IC50) in assay [1] and in assay [2] was below 100 nM each time.

`COc1cc2nccc(Oc3ccc(NC(=O)c4cn(C(C)C)c(C)c(-c5ccc(Cl)c(Cl)c5)c4=O)cc3F)c2cc1OC` [Compound 23, 5-(3,4-Dichlorophenyl)-N-[4-(6,7-dimethoxyquinolin-4-yl)oxy-3-fluorophenyl]-6-methyl-4-oxo-1-propan-2-ylpyridine-3-carboxamide]: the IC50 is 100 to 300 nM in assay [1] and below 100 nM in assay [2].

On to `COc1cc2nccc(Oc3ccc(NC(=O)c4cn(C(C)C)c(C)c(-c5ccc(F)c(Cl)c5)c4=O)cc3F)c2nc1OC` [Compound 24, 5-(3-Chloro-4-fluorophenyl)-N-[4-[(6,7-dimethoxy-1,5-naphthyridin-4-yl)oxy]-3-fluorophenyl]-6-methyl-4-oxo-1-propan-2-ylpyridine-3-carboxamide], for which the IC50 in assay [1] and in assay [2] was below 100 nM in each case.

With `COc1cc2nccc(Oc3ccc(NC(=O)c4cn(C(C)C)c(C)c(-c5ccc(Cl)c(Cl)c5)c4=O)cc3F)c2nc1OC` [Compound 25, 5-(3,4-Dichlorophenyl)-N-[4-[(6,7-dimethoxy-1,5-naphthyridin-4-yl)oxy]-3-fluorophenyl]-6-methyl-4-oxo-1-propan-2-ylpyridine-3-carboxamide], the IC50 in assay [1] and in assay [2] was below 100 nM throughout.

As to `COc1cc2nccc(Oc3ccc(NC(=O)c4cn(C5CCCC5)c(C)c(-c5ccc(F)cc5)c4=O)cc3F)c2nc1OC` [Compound 26], the IC50 in assay [1] and in assay [2] was below 100 nM each time.

Consider `COc1cc2nccc(Oc3ccc(NC(=O)c4cn(C5CCCC5)c(C)c(-c5ccc(F)c(Cl)c5)c4=O)cc3F)c2nc1OC` [Compound 27, 5-(3-Chloro-4-fluorophenyl)-1-cyclopentyl-N-[4-[(6,7-dimethoxy-1,5-naphthyridin-4-yl)oxy]-3-fluorophenyl]-6-methyl-4-oxopyridine-3-carboxamide], for which the IC50 in assay [1] and in assay [2] was below 100 nM throughout.

In the case of `COc1cc2nccc(Oc3ccc(NC(=O)c4cn(C5CC5)cc(-c5ccc(F)cc5)c4=O)cc3F)c2nc1OC` [Compound 41, 1-Cyclopropyl-N-[4-[(6,7-dimethoxy-1,5-naphthyridin-4-yl)oxy]-3-fluorophenyl]-5-(4-fluorophenyl)-4-oxopyridine-3-carboxamide], the IC50 in assay [1] and in assay [2] was below 100 nM throughout.

In the case of `COc1cc2nccc(Oc3ccc(NC(=O)c4cncc(-c5ccc(F)cc5)c4O)cc3F)c2nc1OC` [Compound 42, N-[4-[(6,7-Dimethoxy-1,5-naphthyridin-4-yl)oxy]-3-fluorophenyl]-5-(4-fluorophenyl)-4-hydroxypyridine-3-carboxamide], the 50% inhibitory concentration (IC50) in assay [1] and in assay [2] was below 100 nM each time.

As to `COc1cc2nccc(Oc3ccc(NC(=O)c4cn(C(C)C)cc(-c5ccc(F)cc5)c4=O)cc3F)c2cc1OC` [Compound 43, N-[4-(6,7-Dimethoxyquinolin-4-yl)oxy-3-fluorophenyl]-5-(4-fluorophenyl)-4-oxo-1-propan-2-ylpyridine-3-carboxamide], the IC50 in assay [1] and in assay [2] was below 100 nM throughout.

In the case of `COc1cc2nccc(Oc3ccc(NC(=O)c4cn(C(C)C)cc(-c5ccc(F)cc5)c4=O)cc3F)c2nc1OC` [Compound 44, N-[4-[(6,7-Dimethoxy-1,5-naphthyridin-4-yl)oxy]-3-fluorophenyl]-5-(4-fluorophenyl)-4-oxo-1-propan-2-ylpyridine-3-carboxamide], the IC50 in assay [1] and in assay [2] was below 100 nM in each case.

As for `COc1cc2nccc(Oc3ccc(NC(=O)c4cn(C)cc(-c5ccc(F)cc5)c4=O)cc3F)c2nc1OC` [Compound 45, N-[4-[(6,7-Dimethoxy-1,5-naphthyridin-4-yl)oxy]-3-fluorophenyl]-5-(4-fluorophenyl)-1-methyl-4-oxopyridine-3-carboxamide], the concentration for half-maximal inhibition (IC50) in assay [1] and in assay [2] was below 100 nM each time.

On to `COc1cc2nccc(Oc3ccc(NC(=O)c4cn(C5CCCC5)cc(-c5ccc(F)cc5)c4=O)cc3F)c2nc1OC` [Compound 46, 1-Cyclopentyl-N-[4-[(6,7-dimethoxy-1,5-naphthyridin-4-yl)oxy]-3-fluorophenyl]-5-(4-fluorophenyl)-4-oxopyridine-3-carboxamide], for which the IC50 in assay [1] and in assay [2] was below 100 nM throughout.

Turning to `COc1cc2nccc(Oc3ccc(NC(=O)c4cn(C5COC5)cc(-c5ccc(F)cc5)c4=O)cc3F)c2nc1OC` [Compound 47, N-[4-[(6,7-Dimethoxy-1,5-naphthyridin-4-yl)oxy]-3-fluorophenyl]-5-(4-fluorophenyl)-1-(oxetan-3-yl)-4-oxopyridine-3-carboxamide], the IC50 in assay [1] and in assay [2] was below 100 nM each time.

Take `CNc1ncc(C(=O)Nc2ccc(Oc3ccnc4cc(OC)c(OC)nc34)c(F)c2)c(=O)n1-c1ccc(F)cc1` [Compound 99, N-[4-[(6,7-Dimethoxy-1,5-naphthyridin-4-yl)oxy]-3-fluorophenyl]-1-(4-fluorophenyl)-2-(methylamino)-6-oxopyrimidine-5-carboxamide]: the IC50 in assay [1] and in assay [2] was below 100 nM each time.

Turning to `COc1cc2nccc(Oc3ccc(NC(=O)c4c[nH]c(=S)n(-c5ccc(F)cc5)c4=O)cc3F)c2nc1OC` [Compound 104, N-[4-[(6,7-Dimethoxy-1,5-naphthyridin-4-yl)oxy]-3-fluorophenyl]-3-(4-fluorophenyl)-4-oxo-2-sulfanylidene-1H-pyrimidine-5-carboxamide], the IC50 in assay [1] and in assay [2] was below 100 nM each time.

Regarding `COc1cc2nccc(Oc3ccc(NC(=O)c4c(C)nc(C)c(-c5ccc(F)cc5)c4O)cc3F)c2nc1OC` [Compound 154, N-[4-[(6,7-Dimethoxy-1,5-naphthyridin-4-yl)oxy]-3-fluorophenyl]-5-(4-fluorophenyl)-4-hydroxy-2,6-dimethylpyridine-3-carboxamide], the concentration for half-maximal inhibition (IC50) in assay [3], in assay [4], in assay [1] and in assay [2] was below 100 nM in each case.

On to `COc1cnc2c(Oc3ccc(NC(=O)c4cn(C)c(C)c(-c5ccc(F)cc5C)c4=O)cc3)ccnc2c1` [Compound 187, 5-(4-Fluoro-2-methylphenyl)-N-[4-[(7-methoxy-1,5-naphthyridin-4-yl)oxy]phenyl]-1,6-dimethyl-4-oxopyridine-3-carboxamide], for which the IC50 is above 300 nM in assay [3], below 100 nM in assay [4], below 100 nM in assay [1] and below 100 nM in assay [2].

On to `COc1cc2nccc(Oc3ccc(NC(=O)c4ccc(C)n(-c5ccc(F)cc5)c4=O)cc3F)c2nc1OC` [Compound 254, N-[4-[(6,7-Dimethoxy-1,5-naphthyridin-4-yl)oxy]-3-fluorophenyl]-1-(4-fluorophenyl)-6-methyl-2-oxopyridine-3-carboxamide], for which the IC50 in assay [3], in assay [4], in assay [1] and in assay [2] was below 100 nM throughout.

As to `COc1cc2nccc(Oc3ccc(NC(=O)c4cn(CC(F)(F)F)c(C)c(-c5ccc(F)cc5)c4=O)cc3)c2cc1OC` [Compound 260, N-[4-(6,7-Dimethoxyquinolin-4-yl)oxyphenyl]-5-(4-fluorophenyl)-6-methyl-4-oxo-1-(2,2,2-trifluoroethyl)pyridine-3-carboxamide], the concentration for half-maximal inhibition (IC50) in assay [3] is above 300 nM; in assay [4], below 100 nM; in assay [1], 100 to 300 nM; in assay [2] it was below 100 nM.

For `COCCOc1ccc2nccc(Oc3ccc(NC(=O)c4cnc(C)c(-c5ccc(F)cc5)c4O)cc3F)c2n1` [Compound 348, N-[3-fluoro-4-[[6-(2-methoxyethoxy)-1,5-naphthyridin-4-yl]oxy]phenyl]-5-(4-fluorophenyl)-4-hydroxy-6-methylpyridine-3-carboxamide], the IC50 is 100 to 300 nM in assay [3], below 100 nM in assay [4], below 100 nM in assay [1] and below 100 nM in assay [2].
